This test addresses T1, BRAF V600E (Homo sapiens, UniProt P15056+Q96SW2, V600E).
T1 construct: knock-in of the HiBiT tag to the endogenous BRAF V600E locus; host or cells: A375.10 (A375 clonal line, CRISPR HiBiT knock-in at the endogenous BRAF V600E locus)
Nature of the test: BRAF V600E HiBiT Degradation Assay. The test is classed as cell-based. The procedure, abridged:
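Endogenous HiBiT knock-in on BRAF V600E in A375 cells (clone A375.10); 11-point half-log series, top 10 μM, 2, 6 or 24 h at 37° C. Lytic HiBiT luminescence, background-subtracted, normalized to DMSO; 4-parameter fit gives DC50, Emax (residual protein) and IP (inflection point).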

The mark [1] stands for this setting: A375.10 cells, BRAF V600E, 2 hours, inflection point, read-out: HiBiT-Degradation A375.10 BRAF 2 hours IP.
[2] abbreviates: A375.10 cells, BRAF V600E, 2 hours, read-out: HiBiT-Degradation A375.10 BRAF 2 hours DC50.
Where [3] appears, read: A375.10 cells, BRAF V600E, 2 hours, residual protein remaining, read-out: HiBiT-Degradation A375.10 BRAF 2 hours Emax.
The mark [4] stands for this setting: A375.10 cells, BRAF V600E, 6 hours, inflection point, read-out: HiBiT-Degradation A375.10 BRAF 6 hours IP.
The mark [5] stands for this setting: A375.10 cells, BRAF V600E, 6 hours, read-out: HiBiT-Degradation A375.10 BRAF 6 hours DC50.
Setting [6] is: A375.10 cells, BRAF V600E, 6 hours, residual protein remaining, read-out: HiBiT-Degradation A375.10 BRAF 6 hours Emax.
[7] abbreviates: A375.10 cells, HiBiT, BRAF V600E, 24 hours, read-out: HiBiT-Degradation A375.10 BRAF 24 hours DC50.
[8] abbreviates: A375.10 cells, HiBiT, BRAF V600E, 24 hours, read-out: HiBiT-Degradation A375.10 BRAF 24 hours Emax.
Setting [9] is: A375.10 cells, HiBiT, BRAF V600E, 24 hours, read-out: HiBiT-Degradation A375.10 BRAF 24 hours IP.
[10] abbreviates: read-out: HiBiT-Degradation A375.10 BRAF 2 hours Emax, A375.10 cells, BRAF V600E, 2 hours, residual protein remaining.
Setting [11] is: read-out: HiBiT-Degradation A375.10 BRAF 2 hours DC50, A375.10 cells, BRAF V600E, 2 hours.
[12] abbreviates: read-out: HiBiT-Degradation A375.10 BRAF 2 hours IP, A375.10 cells, BRAF V600E, 2 hours, inflection point.
Setting [13] is: read-out: HiBiT-Degradation A375.10 BRAF 6 hours DC50, A375.10 cells, BRAF V600E, 6 hours.
Setting [14] is: read-out: HiBiT-Degradation A375.10 BRAF 6 hours IP, A375.10 cells, BRAF V600E, 6 hours, inflection point.
Setting [15] is: read-out: HiBiT-Degradation A375.10 BRAF 24 hours DC50, A375.10 cells, HiBiT, BRAF V600E, 24 hours.
[16] abbreviates: read-out: HiBiT-Degradation A375.10 BRAF 24 hours IP, A375.10 cells, HiBiT, BRAF V600E, 24 hours.

The structures appear in SMILES notation. Read-outs that look alike come from different tables or passages of the source. Where only a bound is given, the exact number is not on record here.

T1 sequence (P15056 whole entry V600E): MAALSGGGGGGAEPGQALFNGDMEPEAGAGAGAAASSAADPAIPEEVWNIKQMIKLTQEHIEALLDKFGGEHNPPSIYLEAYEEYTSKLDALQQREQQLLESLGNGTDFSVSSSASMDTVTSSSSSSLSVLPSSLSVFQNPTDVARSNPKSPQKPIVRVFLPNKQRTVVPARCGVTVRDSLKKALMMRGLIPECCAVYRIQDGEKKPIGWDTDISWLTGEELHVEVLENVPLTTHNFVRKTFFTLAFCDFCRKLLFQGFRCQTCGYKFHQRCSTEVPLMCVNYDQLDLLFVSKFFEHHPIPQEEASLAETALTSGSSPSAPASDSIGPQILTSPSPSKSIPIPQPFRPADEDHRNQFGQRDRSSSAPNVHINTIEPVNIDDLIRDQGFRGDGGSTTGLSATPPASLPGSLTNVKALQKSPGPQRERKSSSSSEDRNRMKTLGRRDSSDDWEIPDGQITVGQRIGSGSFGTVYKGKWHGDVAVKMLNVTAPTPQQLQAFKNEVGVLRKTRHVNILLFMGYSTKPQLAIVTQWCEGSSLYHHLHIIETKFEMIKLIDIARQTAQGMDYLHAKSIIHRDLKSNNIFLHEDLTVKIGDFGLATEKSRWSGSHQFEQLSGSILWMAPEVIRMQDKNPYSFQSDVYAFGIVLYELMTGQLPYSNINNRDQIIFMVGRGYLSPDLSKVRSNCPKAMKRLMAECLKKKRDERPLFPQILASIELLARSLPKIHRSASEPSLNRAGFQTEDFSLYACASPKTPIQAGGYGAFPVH
T1 sequence (Q96SW2 whole entry): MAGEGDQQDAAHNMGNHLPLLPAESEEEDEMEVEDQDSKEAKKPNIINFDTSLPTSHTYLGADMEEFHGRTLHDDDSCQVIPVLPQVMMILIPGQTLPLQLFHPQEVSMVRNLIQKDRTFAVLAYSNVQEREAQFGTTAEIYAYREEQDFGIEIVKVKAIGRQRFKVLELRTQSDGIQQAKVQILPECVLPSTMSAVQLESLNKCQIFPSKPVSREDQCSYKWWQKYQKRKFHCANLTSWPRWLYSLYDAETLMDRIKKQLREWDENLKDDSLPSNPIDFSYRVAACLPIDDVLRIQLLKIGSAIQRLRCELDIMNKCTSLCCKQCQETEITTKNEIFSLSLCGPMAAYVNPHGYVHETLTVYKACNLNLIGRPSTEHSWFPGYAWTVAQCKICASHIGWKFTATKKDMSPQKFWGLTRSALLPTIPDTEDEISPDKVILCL
T1 sequence (Q16531 whole entry partner): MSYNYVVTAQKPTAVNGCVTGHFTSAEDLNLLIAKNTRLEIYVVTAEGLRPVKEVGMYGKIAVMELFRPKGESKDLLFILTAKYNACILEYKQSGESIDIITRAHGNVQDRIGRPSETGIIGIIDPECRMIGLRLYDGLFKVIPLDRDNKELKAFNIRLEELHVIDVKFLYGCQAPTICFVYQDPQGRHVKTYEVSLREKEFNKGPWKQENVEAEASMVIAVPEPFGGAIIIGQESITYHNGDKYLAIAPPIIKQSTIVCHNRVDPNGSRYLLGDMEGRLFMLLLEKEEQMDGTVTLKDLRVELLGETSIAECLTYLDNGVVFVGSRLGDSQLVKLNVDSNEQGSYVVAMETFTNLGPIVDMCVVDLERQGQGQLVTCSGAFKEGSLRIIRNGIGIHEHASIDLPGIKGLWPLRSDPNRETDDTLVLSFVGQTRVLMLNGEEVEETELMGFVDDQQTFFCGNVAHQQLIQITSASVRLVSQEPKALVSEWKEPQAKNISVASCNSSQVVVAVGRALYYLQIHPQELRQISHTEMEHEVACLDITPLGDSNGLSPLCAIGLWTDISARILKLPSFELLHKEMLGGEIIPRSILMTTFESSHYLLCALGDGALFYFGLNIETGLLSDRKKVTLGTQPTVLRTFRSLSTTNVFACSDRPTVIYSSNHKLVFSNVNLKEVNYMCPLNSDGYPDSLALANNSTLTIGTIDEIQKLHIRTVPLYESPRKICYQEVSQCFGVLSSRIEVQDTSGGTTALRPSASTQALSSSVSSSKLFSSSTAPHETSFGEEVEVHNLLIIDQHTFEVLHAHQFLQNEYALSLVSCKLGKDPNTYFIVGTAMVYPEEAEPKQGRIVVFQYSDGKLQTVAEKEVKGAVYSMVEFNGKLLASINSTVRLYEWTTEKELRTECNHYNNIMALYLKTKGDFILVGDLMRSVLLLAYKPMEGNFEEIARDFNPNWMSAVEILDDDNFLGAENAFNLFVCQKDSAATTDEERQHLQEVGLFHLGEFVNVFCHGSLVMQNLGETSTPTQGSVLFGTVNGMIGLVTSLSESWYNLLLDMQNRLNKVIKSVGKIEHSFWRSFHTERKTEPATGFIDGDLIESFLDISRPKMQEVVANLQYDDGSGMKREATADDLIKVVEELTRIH

For `CO[C@@H]1CCN(S(=O)(=O)Nc2ccc(F)c(Oc3ccc4ncn([C@H]5COC6(CCN(C7CCC(c8ccc(NC9CCC(=O)NC9=O)cc8F)CC7)CC6)C5)c(=O)c4c3)c2C#N)C1` (single isomer, unassigned) [Compound 109], the DC50 is, setting by setting: under setting [1], less than 1000 nM; under setting [2], less than 1000 nM; under setting [4], less than 1000 nM; under setting [5], less than 1000 nM; under setting [7], less than 1000 nM; under setting [9], less than 1000 nM. Further, the Emax (usually the size of the effect at its maximum, as opposed to the concentration needed) was less than 50% under setting [3], less than 50% under setting [6] and less than 50% under setting [8].

For `CCN(C)S(=O)(=O)Nc1ccc(F)c(Oc2ccc3ncn(C4CC5(CCN(C6CCC(c7ccc(NC8CCC(=O)NC8=O)cc7F)CC6)CC5)C4)c(=O)c3c2)c1C#N` (single isomer, unassigned) [Compound 6, 6-[2-cyano-3-[[ethyl(methyl)sulfamoyl]amino]-6-fluoro-phenoxy]-3-[7-[4-[4-[(2,6-dioxo-3-piperidyl)amino]-2-fluoro-phenyl]cyclohexyl]-7-azaspiro[3.5]nonan-2-yl]-4-oxo-quinazoline], the DC50 was less than 1000 nM under setting [1]; less than 1000 nM under setting [2]; less than 1000 nM under setting [4]; less than 1000 nM under setting [5]; less than 1000 nM under setting [7]; less than 1000 nM under setting [9]. Further, the maximal effect (Emax) was less than 50% under setting [3], less than 50% under setting [6] and less than 50% under setting [8].

In the case of `CN(CCO)S(=O)(=O)Nc1ccc(F)c(Oc2ccc3ncn(C4CC5(CCN(C6CCC(c7cc8c(cc7F)c(N7CCC(=O)NC7=O)nn8C)CC6)CC5)C4)c(=O)c3c2)c1C#N` (single isomer, unassigned) [Compound 81, 6-[2-cyano-6-fluoro-3-[[2-hydroxyethyl(methyl)sulfamoyl]amino]phenoxy]-3-[7-[4-[3-(2,4-dioxohexahydropyrimidin-1-yl)-5-fluoro-1-methyl-indazol-6-yl]cyclohexyl]-7-azaspiro[3.5]nonan-2-yl]-4-oxo-quinazoline], the DC50 under setting [1] is less than 1000 nM; the DC50 under setting [2] is less than 1000 nM; the DC50 under setting [4] is less than 1000 nM; the DC50 under setting [5] is less than 1000 nM; the DC50 under setting [7] was less than 1000 nM; the DC50 under setting [9] is less than 1000 nM. Also, the maximum response (Emax) is, setting by setting: under setting [3], 50 to 90%; under setting [6], less than 50%; under setting [8], less than 50%.

Regarding `CCN(C)S(=O)(=O)Nc1ccc(F)c(Oc2ccc3ncn(C4CC5(CCN(C6CC7(CCN(c8cc9c(cc8F)c(N8CCC(=O)NC8=O)nn9C)CC7)C6)CC5)C4)c(=O)c3c2)c1C#N` (stereo not drawn) [Compound 198, 6-[2-cyano-3-[[ethyl(methyl)sulfamoyl]amino]-6-fluoro-phenoxy]-3-[7-[7-[3-(2,4-dioxohexahydropyrimidin-1-yl)-5-fluoro-1-methyl-indazol-6-yl]-7-azaspiro[3.5]nonan-2-yl]-7-azaspiro[3.5]nonan-2-yl]-4-oxo-quinazoline], the DC50 runs as follows: under setting [1], less than 1000 nM; under setting [2], less than 1000 nM; under setting [7], less than 1000 nM; under setting [9], less than 1000 nM. Also, the Emax by setting is: under setting [8], less than 50%; under setting [10], less than 50%.

`CN(CCO)S(=O)(=O)Nc1ccc(F)c(Oc2ccc3ncn(C4CC5(CCN(C6CCC(c7ccc(NC8CCC(=O)NC8=O)cc7F)CC6)CC5)C4)c(=O)c3c2)c1C#N` (single isomer, unassigned) [Compound 79, 6-[2-cyano-6-fluoro-3-[[2-hydroxyethyl(methyl)sulfamoyl]amino]phenoxy]-3-[7-[4-[4-[(2,6-dioxo-3-piperidyl)amino]-2-fluoro-phenyl]cyclohexyl]-7-azaspiro[3.5]nonan-2-yl]-4-oxo-quinazoline]: the DC50 is, setting by setting: under setting [1], less than 1000 nM; under setting [2], less than 1000 nM; under setting [4], less than 1000 nM; under setting [5], less than 1000 nM; under setting [7], less than 1000 nM; under setting [9], less than 1000 nM. Further, the maximal response (Emax) under setting [3] is less than 50%, the Emax under setting [6] is less than 50% and the Emax under setting [8] is less than 50%.

On to `CCN(C)S(=O)(=O)Nc1ccc(F)c(Oc2ccc3ncn([C@H]4COC5(CCC(N6CCN(c7ccc(NC8CCC(=O)NC8=O)cc7F)CC6)CC5)C4)c(=O)c3c2)c1C#N` (stereo partly drawn) [Compound 40, 6-[2-cyano-3-[[ethyl(methyl)sulfamoyl]amino]-6-fluoro-phenoxy]-3-[(3R)-8-[4-[4-[(2,6-dioxo-3-piperidyl)amino]-2-fluoro-phenyl]piperazin-1-yl]-1-oxaspiro[4.5]decan-3-yl]-4-oxo-quinazoline], for which the maximal effect (Emax) by setting is: under setting [3], 50 to 90%; under setting [6], less than 50%; under setting [8], less than 50%. The DC50 reads like this: under setting [11], 1000 to 10000 nM; under setting [12], less than 1000 nM; under setting [13], less than 1000 nM; under setting [14], less than 1000 nM; under setting [15], less than 1000 nM; under setting [16], less than 1000 nM.

On to `CC(C)S(=O)(=O)Nc1ccc(F)c(Oc2ccc3ncn(C4CC5(CCN(C6CC7(C6)CN(c6cc8c(cc6F)c(N6CCC(=O)NC6=O)nn8C)C7)CC5)C4)c(=O)c3c2)c1C#N` (stereo not drawn) [Compound 273, N-[2-cyano-3-[3-[7-[2-[3-(2,4-dioxohexahydropyrimidin-1-yl)-5-fluoro-1-methyl-indazol-6-yl]-2-azaspiro[3.3]heptan-6-yl]-7-azaspiro[3.5]nonan-2-yl]-4-oxo-quinazolin-6-yl]oxy-4-fluoro-phenyl]propane-2-sulfonamide], for which the DC50 runs as follows: under setting [1], less than 1000 nM; under setting [2], less than 1000 nM. Further, the Emax under setting [10] was less than 50%.

With `CO[C@@H]1CCN(S(=O)(=O)Nc2ccc(F)c(Oc3ccc4ncn([C@H]5COC6(CCN(C7CC8(C7)CN(c7cc9c(cc7F)c(N7CCC(=O)NC7=O)nn9C)C8)CC6)C5)c(=O)c4c3)c2C#N)C1` [Compound 144, (3R)-N-[2-cyano-3-[3-[(3R)-8-[2-[3-(2,4-dioxohexahydropyrimidin-1-yl)-5-fluoro-1-methyl-indazol-6-yl]-2-azaspiro[3.3]heptan-6-yl]-1-oxa-8-azaspiro[4.5]decan-3-yl]-4-oxo-quinazolin-6-yl]oxy-4-fluoro-phenyl]-3-methoxy-pyrrolidine-1-sulfonamide], the maximal effect (Emax) under setting [6] was less than 50%, the Emax under setting [8] is less than 50% and the maximal effect (Emax) under setting [10] was 50 to 90%. For the same compound, the DC50 under setting [11] is 1000 to 10000 nM; the DC50 under setting [12] is less than 1000 nM; the DC50 under setting [13] was less than 1000 nM; the DC50 under setting [14] is less than 1000 nM; the DC50 under setting [15] is less than 1000 nM; the DC50 under setting [16] is less than 1000 nM.

Turning to `CCN(C)S(=O)(=O)Nc1ccc(F)c(Oc2ccc3ncn([C@@H]4CCC5(CCN(C6CCC(c7cc8c(cc7F)c(N7CCC(=O)NC7=O)nn8C)CC6)CC5)C4)c(=O)c3c2)c1C#N` (single isomer, unassigned) [Compound 31], the DC50 was less than 1000 nM under setting [1] and greater than 10000 nM under setting [2]. Moreover, the maximal response (Emax) under setting [10] was 50 to 90%.

`CCN(C)S(=O)(=O)Nc1ccc(F)c(Oc2ccc3ncn([C@H]4COC5(CCN(C6CCC(c7cc8c(cc7F)c(N7CCC(=O)NC7=O)nn8C)CC6F)CC5)C4)c(=O)c3c2)c1C#N` (single isomer, unassigned) [Compound 28]: the DC50 is, setting by setting: under setting [1], less than 1000 nM; under setting [2], less than 1000 nM; under setting [4], less than 1000 nM; under setting [5], less than 1000 nM; under setting [7], less than 1000 nM; under setting [9], less than 1000 nM. Moreover, the maximum response (Emax) under setting [6] is less than 50%, the maximum response (Emax) under setting [8] was less than 50% and the maximal response (Emax) under setting [10] is less than 50%.

Take `CCN(C)S(=O)(=O)Nc1ccc(F)c(Nc2ccc3ncn([C@@H]4COC5(CCN(C6CCC(c7ccc(NC8CCC(=O)NC8=O)cc7F)CC6)CC5)C4)c(=O)c3c2F)c1C#N` (single isomer, unassigned) [Compound 90]: the DC50 by setting is: under setting [1], less than 1000 nM; under setting [2], less than 1000 nM; under setting [4], less than 1000 nM; under setting [5], less than 1000 nM; under setting [7], less than 1000 nM; under setting [9], less than 1000 nM. Also, the maximal effect (Emax) is, setting by setting: under setting [3], less than 50%; under setting [6], less than 50%; under setting [8], less than 50%.

Source of the values: patent publication US20260297060A1, “COMPOUNDS FOR THE DEGRADATION OF MUTANT BRAF” (C4 THERAPEUTICS, INC., priority 2023, published 2026).
